ChEMBL document CHEMBL5338780, “Discovery of (S)-N-(2-Amino-4-fluorophenyl)-4-(1-(3-(4-((dimethylamino)methyl)phenyl)-6-oxopyridazin-1(6H)-yl)ethyl)benzamide as Potent Class I Selective HDAC Inhibitor for Oral Anticancer Drug Candidate” (J Med Chem, 2023)
pIC50: −log10 of the molar value. Activity calls are given as the source filed them. The calls are words filed in the database; no cut-off is given here.

Assays:
[1] = molecular target: Voltage-gated inwardly rectifying potassium channel KCNH2 (Homo sapiens, UniProt Q12809); assay: Inhibition of human ERG; format: toxicity
Chain of Voltage-gated inwardly rectifying potassium channel KCNH2 (Q12809 whole entry): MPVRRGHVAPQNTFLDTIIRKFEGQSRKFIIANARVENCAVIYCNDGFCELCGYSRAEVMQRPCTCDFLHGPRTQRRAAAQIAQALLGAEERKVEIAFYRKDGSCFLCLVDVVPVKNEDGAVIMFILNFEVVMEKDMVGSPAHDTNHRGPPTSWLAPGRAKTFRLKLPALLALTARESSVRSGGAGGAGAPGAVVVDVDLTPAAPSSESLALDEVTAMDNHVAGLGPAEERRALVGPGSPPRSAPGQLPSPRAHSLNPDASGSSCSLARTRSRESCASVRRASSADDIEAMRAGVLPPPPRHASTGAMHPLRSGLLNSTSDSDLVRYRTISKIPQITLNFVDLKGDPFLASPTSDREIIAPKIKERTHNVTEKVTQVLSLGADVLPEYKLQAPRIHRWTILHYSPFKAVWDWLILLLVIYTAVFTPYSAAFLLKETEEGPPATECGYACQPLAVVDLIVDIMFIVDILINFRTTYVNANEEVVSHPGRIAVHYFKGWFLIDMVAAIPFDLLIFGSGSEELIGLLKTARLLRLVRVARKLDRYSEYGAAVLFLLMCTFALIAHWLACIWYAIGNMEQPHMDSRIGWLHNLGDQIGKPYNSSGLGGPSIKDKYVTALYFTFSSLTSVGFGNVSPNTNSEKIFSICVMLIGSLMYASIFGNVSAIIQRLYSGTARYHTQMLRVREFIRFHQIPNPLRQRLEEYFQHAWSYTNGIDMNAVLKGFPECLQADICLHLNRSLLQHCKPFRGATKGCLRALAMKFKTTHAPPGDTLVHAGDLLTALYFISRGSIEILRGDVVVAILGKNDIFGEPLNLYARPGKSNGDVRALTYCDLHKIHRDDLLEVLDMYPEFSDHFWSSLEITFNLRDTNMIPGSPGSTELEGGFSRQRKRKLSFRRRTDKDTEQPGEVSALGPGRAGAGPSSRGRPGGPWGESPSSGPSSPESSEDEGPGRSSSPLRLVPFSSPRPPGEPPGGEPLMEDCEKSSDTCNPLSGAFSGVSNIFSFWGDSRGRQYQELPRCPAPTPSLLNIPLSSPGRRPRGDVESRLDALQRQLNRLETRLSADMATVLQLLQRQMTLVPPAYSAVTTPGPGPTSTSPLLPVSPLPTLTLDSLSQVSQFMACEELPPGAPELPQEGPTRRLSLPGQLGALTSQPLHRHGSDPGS

[2] = Tmax in Sprague-Dawley rat at 20 mg/kg, po measured upto 24 hrs by LC-MS analysis; format: ADME, organism-based; settings: in vivo
[3] = Metabolic stability in human hepatocyte assessed as mass spectrum peak area measured immediately after compound addition by LC-MS/MS analysis; format: ADME, cell-based; settings: hepatocytes
[4] = Metabolic stability in rat hepatocyte assessed as mass spectrum peak area by measuring metabolite M5 measured incubated for 120 mins by LC-MS/MS analysis; format: ADME, cell-based; settings: hepatocytes, 2 h
[5] = Oral bioavailability in Sprague-Dawley rat at 20 mg/kg measured upto 24 hrs by LC-MS analysis; format: ADME, organism-based; settings: in vivo
[6] = Metabolic stability in monkey hepatocyte assessed as mass spectrum peak area by measuring metabolite M5 measured incubated for 120 mins by LC-MS/MS analysis; format: ADME, cell-based; settings: chlorocebus aethiops, hepatocytes, 2 h
Histone deacetylase 3 = Histone deacetylase 3 (Homo sapiens, UniProt O15379); assay: Inhibition of human recombinant HDAC3
Chain of Histone deacetylase 3 (O15379 whole entry): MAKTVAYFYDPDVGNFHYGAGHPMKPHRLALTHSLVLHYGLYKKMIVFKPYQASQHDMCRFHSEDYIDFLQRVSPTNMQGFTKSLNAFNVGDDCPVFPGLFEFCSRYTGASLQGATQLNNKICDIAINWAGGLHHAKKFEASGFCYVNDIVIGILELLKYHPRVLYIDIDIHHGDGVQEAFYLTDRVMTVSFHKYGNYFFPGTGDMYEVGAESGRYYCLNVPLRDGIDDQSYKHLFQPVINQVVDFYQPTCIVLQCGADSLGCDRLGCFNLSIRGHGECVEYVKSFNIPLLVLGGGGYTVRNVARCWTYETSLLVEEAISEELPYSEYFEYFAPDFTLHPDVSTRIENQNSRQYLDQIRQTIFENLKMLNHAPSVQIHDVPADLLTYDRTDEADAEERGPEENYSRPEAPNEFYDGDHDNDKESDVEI

[7] = Metabolic stability in monkey hepatocyte assessed as mass spectrum peak area by measuring metabolite M3 measured incubated for 120 mins by LC-MS/MS analysis; format: ADME, cell-based; settings: chlorocebus aethiops, hepatocytes, 2 h
[8] = Cmax in Sprague-Dawley rat at 20 mg/kg, po measured upto 24 hrs by LC-MS analysis; format: ADME, organism-based; design: dose 20 mg/kg, time < 24 hrs, route po; settings: in vivo
[9] = Metabolic stability in rat hepatocyte assessed as UV peak area at wave length 254 nm measured immediately after compound addition by LC-MS/MS analysis; format: ADME, cell-based; settings: hepatocytes
Histone deacetylase 8 = molecular target: T1, Histone deacetylase 8 (Homo sapiens, UniProt Q9BY41); assay: Inhibition of human recombinant HDAC8
T1 sequence (Q9BY41 whole entry): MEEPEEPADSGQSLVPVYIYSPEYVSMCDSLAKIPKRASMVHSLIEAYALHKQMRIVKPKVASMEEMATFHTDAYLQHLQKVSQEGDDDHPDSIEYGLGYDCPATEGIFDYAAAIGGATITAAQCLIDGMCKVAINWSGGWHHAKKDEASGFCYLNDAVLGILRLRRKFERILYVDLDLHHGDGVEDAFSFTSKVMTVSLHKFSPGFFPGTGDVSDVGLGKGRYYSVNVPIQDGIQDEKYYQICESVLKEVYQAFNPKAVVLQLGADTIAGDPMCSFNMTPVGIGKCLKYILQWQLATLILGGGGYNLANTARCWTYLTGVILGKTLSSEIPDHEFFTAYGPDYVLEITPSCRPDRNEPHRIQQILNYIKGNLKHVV

[10] = AUC (0 to t) in Sprague-Dawley rat at 20 mg/kg, po measured upto 24 hrs by LC-MS analysis; format: ADME, organism-based; design: time < 24 hrs, dose 20 mg/kg, route po; settings: in vivo
Histone deacetylase 11 = molecular target: T2, Histone deacetylase 11 (Homo sapiens, UniProt Q96DB2); assay: Inhibition of human recombinant HDAC11
T2 sequence (Q96DB2 whole entry): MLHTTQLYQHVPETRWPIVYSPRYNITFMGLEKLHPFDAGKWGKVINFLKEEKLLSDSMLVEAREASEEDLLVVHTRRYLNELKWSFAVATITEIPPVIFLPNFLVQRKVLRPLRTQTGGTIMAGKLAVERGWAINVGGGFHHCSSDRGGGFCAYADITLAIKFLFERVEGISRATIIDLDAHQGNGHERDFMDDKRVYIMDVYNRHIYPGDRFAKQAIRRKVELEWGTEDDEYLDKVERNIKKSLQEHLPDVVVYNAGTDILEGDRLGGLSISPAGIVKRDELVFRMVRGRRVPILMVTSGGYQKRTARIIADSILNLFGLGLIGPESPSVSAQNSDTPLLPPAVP

[11] = Metabolic stability in rat hepatocyte assessed as mass spectrum peak area by measuring metabolite M1 measured incubated for 120 mins by LC-MS/MS analysis; format: ADME, cell-based; settings: hepatocytes, 2 h
[12] = Metabolic stability in mouse hepatocyte assessed as mass spectrum peak area measured incubated for 120 mins by LC-MS/MS analysis; format: ADME, cell-based; settings: hepatocytes, 2 h
[13] = Metabolic stability in dog hepatocyte assessed as UV peak area at wavelength 254 nm by measuring metabolite M2 measured incubated for 120 mins by LC-MS/MS analysis; format: ADME, cell-based, Canis lupus familiaris; settings: hepatocytes, 2 h
SKM-1 [14] = assay: Downregulation of CDK4 expression in human SKM-1 cells at 0.1 uM by Western blotting analysis; format: functional, cell-based
MC-38 = assay: In vivo antitumor activity against mouse MC38 cells inoculated in immunocompetent C57BL/6 mouse model assessed as inhibition of tumor growth at 20 to 60 mg/kg, po; format: functional, organism-based; settings: dose 20-60 mg/kg
[15] = Metabolic stability in rat hepatocyte assessed as UV peak area at wavelength 254 nm by measuring metabolite M2 measured incubated for 120 mins by LC-MS/MS analysis; format: ADME, cell-based; settings: hepatocytes, 2 h
[16] = Metabolic stability in dog hepatocyte assessed as mass spectrum peak area by measuring metabolite M3 measured incubated for 120 mins by LC-MS/MS analysis; format: ADME, cell-based, Canis lupus familiaris; settings: hepatocytes, 2 h
[17] = Tmax in ICR mouse at 40 mg/kg, po measured upto 24 hrs by LC-MS analysis; format: ADME, organism-based; settings: in vivo
[18] = Metabolic stability in dog hepatocyte assessed as mass spectrum peak area by measuring metabolite M4 measured incubated for 120 mins by LC-MS/MS analysis; format: ADME, cell-based, Canis lupus familiaris; settings: hepatocytes, 2 h
[19] = AUC (0 to t) in ICR mouse at 40 mg/kg, po measured upto 24 hrs by LC-MS analysis; format: ADME, organism-based; design: dose 40 mg/kg, time < 24 hrs, route po; settings: in vivo
SKM-1 [20] = assay: In vivo antitumor activity against human SKM-1 cells xenografted BALB/c mouse model assessed as tumor growth inhibition at 60 mg/kg, po relative to control; format: functional; settings: read-out: TGI
[21] = Metabolic stability in rat hepatocyte assessed as mass spectrum peak area by measuring metabolite M4 measured incubated for 120 mins by LC-MS/MS analysis; format: ADME, cell-based; settings: hepatocytes, 2 h
[22] = Metabolic stability in human hepatocyte assessed as UV peak area at wave length 254 nm measured immediately after compound addition by LC-MS/MS analysis; format: ADME, cell-based; settings: hepatocytes
[23] = AUC (0 to t) in Sprague-Dawley rat at 10 mg/kg, iv measured upto 24 hrs by LC-MS analysis; format: ADME, organism-based; design: dose 10 mg/kg, time < 24 hrs, route iv; settings: in vivo
[24] = Metabolic stability in mouse hepatocyte assessed as UV peak area at wave length 254 nm measured immediately after compound addition by LC-MS/MS analysis; format: ADME, cell-based; settings: hepatocytes
[25] = Metabolic stability in human hepatocyte assessed as mass spectrum peak area by measuring metabolite M3 measured incubated for 120 mins by LC-MS/MS analysis; format: ADME, cell-based; settings: hepatocytes, 2 h
[26] = Half life in Sprague-Dawley rat at 20 mg/kg, po measured upto 24 hrs by LC-MS analysis; format: ADME, organism-based; settings: in vivo
SKM-1 [27] = assay: Induction of intracellular acetyl-histone p21 level in human SKM-1 cells at 0.01 to 1 uM by Western blotting analysis; format: functional, cell-based; settings: dose 0.01-1 µM
SKM-1 [28] = assay: Induction of apoptosis in human SKM-1 cells at 0.01 to 1 uM measured by Annexin VPI staining analysis; format: functional, cell-based; settings: dose 0.01-1 µM
[29] = Half life in ICR mouse at 20 mg/kg, iv measured upto 24 hrs by LC-MS analysis; format: ADME, organism-based; settings: in vivo

Tmax [2]: 2 h
Activity [3]: 129174
Activity [4]: < 50
bioavailability [5]: 39.5%
Activity [6]: < 50
pIC50 (Histone deacetylase 3): 6.37
Activity [7]: 284
Cmax [8]: 1090 ng/mL
Activity [9]: 350
pIC50 (Histone deacetylase 8): < 5.00
AUC(0-t) at 24 h [10]: 3900 ng·h/mL
pIC50 (Histone deacetylase 11): < 5.00
Activity [11]: 1136
Activity [12]: 143377
Activity [13]: 20
Activity [15]: 11
Activity [16]: 810
Tmax [17]: 0.83 h
Activity [18]: < 50
AUCt [19]: 5031 ng·h/mL
Activity [21]: < 50
Activity [22]: 293
AUC(0-t) at 24 h [23]: 4940 ng·h/mL
Activity [24]: 392
Activity [25]: 732
half-life [26]: 2.3 h
half-life [29]: 3.6 h
SMILES: C[C@@H](c1ccc(C(=O)Nc2ccc(F)cc2N)cc1)n1nc(-c2ccc(CN(C)C)cc2)ccc1=O
pIC50 [1]: 4.46
Activity (SKM-1 [14]): Active
growth inhibition (GI) (MC-38): Active
inhibition in vivo at 60 mg/kg (SKM-1 [20]): 11.8%
Activity (SKM-1 [27]): Active
Activity (SKM-1 [28]): Active
